Test results reported in PubChem BioAssay (NCI).
Several values for one entry are separate records, joined by “and”; a condition that tells them apart may be missing. Identical values can stand only once.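 Exposure lasted 48 hours, with cells grown in 96-well plates and compounds tested at five concentrations. GI50: concentration for 50% inhibition of growth. Definition used: TGI = concentration required for complete inhibition of growth.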

Legend:
Assay in all cases: NCI-60 cell line screen, 48 h
[1] = system: CCRF-CEM leukemia
[2] = system: KM12 colon
[3] = system: MALME-3M melanoma
[4] = system: NCI-H226 lung
[5] = system: NCI-H460 lung
[6] = system: OVCAR-4 ovarian
[7] = system: RPMI-8226 leukemia
[8] = system: SK-MEL-28 melanoma
[9] = system: SK-OV-3 ovarian
[10] = system: TK-10 renal

`COc1ccc2c(Nc3ccc(NS(C)(=O)=O)cc3)c3ccccc3nc2c1` gave a GI50 [1] of 0.32 µM, a TGI [1] of 6.03 µM and a GI50 [2] of 0.533 µM. It also gave a TGI [2] of 9.19 µM, a GI50 [3] of 0.652 µM and a TGI [3] of 2.38 µM. For the same compound, the GI50 [4] was 0.229 µM, the TGI [4] was 1.59 µM and the GI50 [5] was 0.0618 µM. It also gave a TGI [5] of 1.11 µM, a GI50 [6] of 1.23 µM and a TGI [6] of 4.13 µM. For the same compound, the GI50 [7] was 0.431 µM, the TGI [7] was 4.09 µM and the GI50 [8] was 1.38 µM. For the same compound, the TGI [8] was 3.45 µM, the GI50 [9] was 0.364 µM and the TGI [9] was 5.26 µM. The GI50 [10] was 0.596 µM and the TGI [10] was 4.96 µM.
In the case of `O=C1CSC(/C(=C\c2ccc(Cl)cc2)c2nc3ccccc3[nH]2)=N1`, the TGI [1] is reported as > 75.7 µM, the TGI [2] is reported as 28.5 µM and the TGI [3] is reported as 31.6 µM. It also gave a TGI [4] of 18.2 µM, a TGI [5] of 32.2 µM and a TGI [6] of 31.8 µM. For the same compound, the TGI [7] was > 100 µM, the TGI [8] was 32.6 µM and the TGI [9] was 24.1 µM. For the same compound, the TGI [10] was 24.8 µM.
For `COc1ccc(C(N)=O)cc1N=NN(C)C`, the TGI [1] was > 100 µM, the TGI [2] was > 100 µM and the TGI [3] was > 100 µM. The TGI [4] was > 100 µM, the TGI [5] was > 100 µM and the TGI [6] was > 100 µM. For the same compound, the TGI [7] was > 100 µM, the TGI [8] was > 100 µM and the TGI [9] was > 100 µM. For the same compound, the TGI [10] was > 100 µM.
`COC1CC2C=C(C)/C=C/C=C/C(=O)NC(c3ccccc3)C/C=C/CCC(O)CC(=O)C2=C1O` (stereo unspecified) was tested, and the GI50 [1] was 0.284 µM, the TGI [1] was 1.3 µM and the GI50 [2] was 0.332 µM. It also gave a TGI [2] of 1.26 µM, a GI50 [3] of 0.214 µM and a TGI [3] of 1.19 µM. The GI50 [4] was 0.43 µM, the TGI [4] was 2.17 µM and the GI50 [5] was 0.24 µM. It also gave a TGI [5] of 1.19 µM, a GI50 [6] of 0.294 µM and a TGI [6] of 1.08 µM. The GI50 [7] was 0.186 µM, the TGI [7] was 0.566 µM and the GI50 [8] was 0.703 µM. It also gave a TGI [8] of 2.03 µM, a GI50 [9] of 0.369 µM and a TGI [9] of 1.46 µM. For the same compound, the GI50 [10] was 0.298 µM and the TGI [10] was 1.31 µM.
`COC(=O)c1c2c(c(C)[n+]([O-])c1C)C(=O)C=C(NCc1ccc(F)c(F)c1)C2=O` showed a GI50 [1] of 0.409 µM, a TGI [1] of 2.47 µM and a GI50 [2] of 0.28 µM. It also gave a TGI [2] of 1.71 µM, a GI50 [3] of 0.139 µM and a TGI [3] of 0.301 µM. For the same compound, the GI50 [4] was 1.44 µM, the TGI [4] was 3.27 µM and the GI50 [5] was 0.45 µM. For the same compound, the TGI [5] was 1.79 µM, the GI50 [6] was 0.177 µM and the TGI [6] was 0.666 µM. For the same compound, the GI50 [7] was 0.783 µM, the TGI [7] was 3.23 µM and the GI50 [8] was 0.84 µM. It also gave a TGI [8] of 2.43 µM, a GI50 [9] of 1.86 µM and a TGI [9] of 4.06 µM. For the same compound, the GI50 [10] was 2.06 µM and the TGI [10] was 4.82 µM.
`CCN1C(=S)N(CC)C2C1NC(=S)N2/N=C/C=C/c1ccccc1` (stereo unspecified) showed a GI50 [1] of 1.26 µM, a TGI [1] of 12 µM and a GI50 [2] of 1.21 µM. It also gave a TGI [2] of 14.7 µM, a GI50 [3] of 2.09 µM and a TGI [3] of 17.8 µM. It also gave a GI50 [4] of 6.73 µM, a TGI [4] of 24.4 µM and a GI50 [5] of 1.79 µM. The TGI [5] was 12.7 µM, the GI50 [6] was 5.4 µM and the TGI [6] was 19.6 µM. It also gave a GI50 [7] of 1.97 µM, a TGI [7] of 6.64 µM and a GI50 [8] of 4.81 µM. It also gave a TGI [8] of 21 µM, a GI50 [9] of 2.4 µM and a TGI [9] of 14.7 µM. The GI50 [10] was 7.65 µM and the TGI [10] was 23.1 µM.
In the case of `C=C=C(CC)C(C(=O)OC)N(CC)CC` (stereo unspecified), the TGI [1] is reported as > 100 µM, the TGI [2] is reported as > 100 µM and the TGI [3] is reported as > 100 µM. The TGI [4] was > 100 µM, the TGI [5] was > 100 µM and the TGI [6] was > 100 µM. The TGI [7] was > 100 µM, the TGI [8] was > 100 µM and the TGI [9] was > 100 µM. The TGI [10] was > 100 µM.
With `COc1cc2noc(-c3ccccc3)c2cc1OC` the TGI [1] was > 100 µM, the TGI [2] was > 100 µM and the TGI [3] was > 100 µM. The TGI [4] was > 100 µM, the TGI [5] was > 100 µM and the TGI [6] was > 100 µM. The TGI [7] was 56.7 µM, the TGI [9] was > 100 µM and the TGI [10] was > 100 µM.
`Cc1sc(C)c(Cc2c(C)sc(C)c2CCl)c1CCl` was tested, and the GI50 [1] was > 100 µM, the TGI [1] was > 100 µM and the GI50 [2] was > 100 µM. For the same compound, the TGI [2] was > 100 µM, the GI50 [3] was 81.4 µM and the TGI [3] was > 100 µM. The GI50 [4] was > 100 µM, the TGI [4] was > 100 µM and the GI50 [5] was > 100 µM. The TGI [5] was > 100 µM, the GI50 [6] was > 100 µM and the TGI [6] was > 100 µM. For the same compound, the GI50 [7] was > 100 µM, the TGI [7] was > 100 µM and the GI50 [8] was > 100 µM. For the same compound, the TGI [8] was > 100 µM, the GI50 [9] was > 100 µM and the TGI [9] was > 100 µM. The GI50 [10] was > 100 µM and the TGI [10] was > 100 µM.
`Cc1cc(C)c(C[N+](C)(C)C)c(C)c1C` was tested, and the GI50 [1] was 0.201 µM, the TGI [1] was > 67.5 µM and the GI50 [2] was 0.33 µM. It also gave a TGI [2] of 24.2 µM, a GI50 [3] of 0.594 µM and a TGI [3] of 32.2 µM. For the same compound, the GI50 [4] was 0.565 µM, the TGI [4] was 11.9 µM and the GI50 [5] was 0.367 µM. The TGI [5] was > 100 µM, the GI50 [6] was 0.762 µM and the TGI [6] was > 27.1 µM. It also gave a GI50 [7] of 0.588 µM, a TGI [7] of 15.9 µM and a GI50 [8] of 0.365 µM. For the same compound, the TGI [8] was 23.5 µM, the GI50 [9] was 0.499 µM and the TGI [9] was 11.2 µM. It also gave a GI50 [10] of 0.528 µM and a TGI [10] of 12.1 µM.
With `O=c1nc(Nc2cccc(Cl)c2)oc2cc(Cl)oc(=O)c12` the GI50 [1] was 2.87 µM, the TGI [1] was 14.9 µM and the GI50 [2] was 11.4 µM. The TGI [2] was 31.8 µM, the GI50 [3] was 4.36 µM and the TGI [3] was 18.8 µM. It also gave a GI50 [4] of 17.1 µM, a TGI [4] of 73.6 µM and a GI50 [5] of 16.7 µM. The TGI [5] was 39.9 µM, the GI50 [6] was 10.9 µM and the TGI [6] was > 100 µM. It also gave a GI50 [7] of 4.02 µM, a TGI [7] of 43.1 µM and a GI50 [8] of 8.76 µM. For the same compound, the TGI [8] was 22.7 µM, the GI50 [9] was 17.2 µM and the TGI [9] was 66.1 µM. The GI50 [10] was 5.11 µM and the TGI [10] was 24 µM.
For `C=C1C(=O)OC2CC1C(O)C/C(C)=C/CC/C(C)=C/C(O)CC2C` (stereo unspecified), the TGI [1] was 1.34 µM, the TGI [2] was 18.3 µM and the TGI [3] was 7.61 µM. The TGI [4] was 24.8 µM, the TGI [5] was 10.8 µM and the TGI [6] was 11.5 µM. It also gave a TGI [7] of 6.23 µM, a TGI [8] of 9.8 µM and a TGI [9] of 26.5 µM. The TGI [10] was 6.91 µM.
In the case of `COc1c(C(=O)O)oc2c(OC)cccc12`, the TGI [1] is reported as > 100 µM, the TGI [2] is reported as > 100 µM and the TGI [3] is reported as > 100 µM. The TGI [4] was > 100 µM, the TGI [5] was > 100 µM and the TGI [6] was > 100 µM. For the same compound, the TGI [7] was > 100 µM, the TGI [8] was > 100 µM and the TGI [9] was > 100 µM. The TGI [10] was > 100 µM.
Work on `OCC1OC(n2ccc3c(NO)ncnc32)C(O)C1O` (stereo unspecified) yielded a GI50 [1] of 0.159 µM, a TGI [1] of 0.692 µM and a GI50 [2] of 0.234 µM. The TGI [2] was 1.12 µM, the GI50 [3] was 0.117 µM and the TGI [3] was 0.451 µM. It also gave a GI50 [4] of 0.251 µM, a GI50 [5] of 0.044 µM and a TGI [5] of 4.45 µM. For the same compound, the GI50 [6] was 0.124 µM, the TGI [6] was 1.3 µM and the GI50 [7] was 0.138 µM. The TGI [7] was 0.504 µM, the GI50 [8] was 0.231 µM and the TGI [8] was 0.873 µM. The GI50 [9] was 0.12 µM, the TGI [9] was 5.38 µM and the GI50 [10] was 0.152 µM. It also gave a TGI [10] of 1.16 µM.
For `COc1cc2c3c(c1)c1cc(OC)c(OC)cc1c[n+]3CC2`, the GI50 [1] was 69.8 µM, the TGI [1] was > 100 µM and the GI50 [2] was 5.69 µM. The TGI [2] was 19.3 µM and 69.9 µM, the GI50 [3] was 2.71 µM and the TGI [3] was 7.93 µM and 13 µM. For the same compound, the GI50 [4] was 4.13 µM, the TGI [4] was 50 µM and 77.3 µM and the TGI [5] was 47.8 µM. The GI50 [6] was 18.2 µM, the TGI [6] was 50 µM and > 100 µM and the TGI [7] was 50 µM. For the same compound, the GI50 [8] was 32.8 µM, the TGI [8] was 50 µM and > 100 µM and the GI50 [9] was 89.5 µM. For the same compound, the TGI [9] was > 100 µM, the GI50 [10] was > 100 µM and the TGI [10] was > 100 µM.
